# Patent US11465963B2, “Tetrahydronaphthalene derivatives useful as Nrf2 activators” (BIOGEN MA INC., priority 2017, dated 2022)
# Tests used:
# Format in all cases: cell-based
# human astrocytes [1] = experiment: Glutathione assay in cultured human astrocytes; settings: 20-hr exposure, FIG. 2
# Description: (§1) Human astrocytes from ScienCell (cat #1820) were grown in astrocyte medium per supplier's instructions. Cells cultured for no more than two passages were plated in 96-well plates at 40,000 cells per well for gene transcription experiments and 20,000 cells per well for glutathione and cytoprotection assays.
# Intracellular glutathione was measured after a 20-hr exposure to test compounds by a two-step process. First, cells were lysed and luciferin quantitatively generated from substrate, catalyzed by glutathione-S-transferase in the presence of analyte glutathione. Then luciferin was assayed using stabilized luciferase to produce a luminescent signal proportional to the concentration of glutathione (Promega GSH-Glo, cat #V6912).
# human astrocytes [2] = experiment: Cytoprotection of human astrocytes from sodium arsenite; settings: compound 20 hrs before 25 μM sodium arsenite, then 22 hrs, FIG. 3
# Description: Human astrocytes from ScienCell (cat #1820) were grown in astrocyte medium per supplier's instructions. Cells cultured for no more than two passages were plated in 96-well plates at 40,000 cells per well for gene transcription experiments and 20,000 cells per well for glutathione and cytoprotection assays. Astrocytes were treated for 20 hrs as above, then the medium was removed and replaced with serum- and supplement-free growth medium with and without 25 μM sodium arsenite. After 22 hrs., cells were washed with PBS, fixed with 4% paraformaldehyde/4% sucrose in PBS, stained with 4′,6-Diamidino-2-phenylindole dihydrochloride (DAPI) and counted by quantitative fluorescence microscopy.
# [3] = system: Nrf2 target genes, including GCLC, HMOX1, OSGIN1 and NQO1; experiment: Gene expression (RT-PCR) in cultured human astrocytes; settings: human astrocytes treated with increasing concentrations for 20 hours
# Description: as §1
# Primary cultures of human spinal cord astrocytes were treated with compound for 20 hours. The cells were then rinsed in PBS, lysed, and processed for RNA using Ambion Taqman™ Cells-to-CT kit. The resulting cDNA was stored at −20° C. until analysis by real-time polymerase chain reaction (RT-PCR). The cDNA mixture from Cells-to-CT was diluted 5× before loading into PCR. This yields results similar to using 6 ng of purified cDNA. RT-PCR was performed on Life Technologies QuantStudio platform using OpenArray technique according to manufacturer's protocol using the following Taqman primers: […]
# The comparative CT method was used to calculate fold changes using ThermoFisher Cloud software for PCR analysis. Samples were compared to vehicle control.
structure (smiles),measurement,setting,value
"CC1(C)C(=O)C(C#N)=C[C@]2(C)C[C@](O)(c3ccccc3)CC[C@H]12 [Compound 24, (4aS,7S,8aS)-7-hydroxy-4,4,8a-trimethyl-3-oxo-7-phenyl-4a,5,6,8-tetrahydronaphthalene-2-carbonitrile]",intracellular glutathione,human astrocytes [1],increases
same,protection from oxidative stress-induced cell death,human astrocytes [2],protects
same,transcription of GCLC,[3]; FIG. 1A,induces transcription
same,transcription of HMOX1,[3]; FIG. 1B,induces transcription
same,transcription of OSGIN1,[3]; FIG. 1C,induces transcription
same,transcription of NQO1,[3]; FIG. 1D,induces transcription
